{"source": "patent US6555126B2", "about": "“Method for treating, controlling, and preventing Diabetes Mellitus” (Diabex, Inc., priority 1999, dated 2003)", "key": {"[1]": {"tested_on": "normoglycemic rats", "assay": "Hypoglycemic effect of a single intraperitoneal injection in normoglycemic rats", "type": "in vivo", "excerpt": "(§1) Preparation of Animals: For each experiment, eight (8) overnight fasted normoglycemic and diabetic rats were used. The animals were kept in the experimental animal laboratory for three days with free access to food and water.\n(§2) On the day of the experiment, blood samples were collected at zero time before IP injection of the test substance (Riedel De Hein—Germany), and at intervals as given in Table 1 and 2. Blood samples were drawn from the ear vein in 100 micro millimeter heparinized capillary tubes.\n(§3) Blood glucose concentrations were determined according to glucose oxidase method, using glucose enzymatic kits (Biomerioux France).\n(§4) The percentage change in glycaemia was calculated.\n(§5) For control animals, sterile saline solution was used instead of Linalool.\n(§6) Data are expressed as means and standard error of the mean (S.E.M.) statistical analysis were performed using student's t test."}, "[2]": {"tested_on": "Streptozocin diabetic rats", "assay": "Hypoglycemic effect of a single intraperitoneal injection in Streptozocin diabetic (hyperglycemic) rats", "type": "in vivo", "protocol": "as §1\nHyperglycemia was induced in the diabetic group of rats by a single intraperitoneal injection of Streptozocin (Upjohn Co, Kalamazoo, Mich., USA). […] body weight-freshly dissolved in citrate phosphate buffer with pH adjusted to 4.5.\nDiabetes was confirmed one week after administration of Streptozocin by determining the fasting blood glucose concentration. […] The fasting blood glucose concentration in normal rats is 90-120 mg/dl.\nas §2, §3, §4, §5, §6"}, "[3]": {"tested_on": "diabetic volunteers (Diabetes Mellitus)", "assay": "Limited clinical study in diabetic volunteers", "type": "in vivo, human", "set-up": "key to readings (blood glucose) / Fasting Blood Sugar: blood glucose in mg/dl", "protocol": "The study was conducted with strict and continuous monitoring of all vital physical parameters of all volunteers. No clinical or biochemical side effects were observed during or after the test periods. Special attention was made while monitoring Blood Urea, Serum Creatinine, SGPT, Cholesterol, and Triglycerides.\nThe study involved over 200 diabetic volunteers with different types of Diabetes Mellitus and from different countries, and of both sexes. The breakdown was as follows:\nGroup One: Two (2) volunteers were new Diabetes Mellitus patients (Virgin cases).\nThese volunteers had never been treated for the disease and never taken any of the known and standard Diabetes Mellitus medications.\nStarted using Linalool Enteric Coated Softgels 0.45 ml 3 times daily with meals, on Feb. 22nd, 1999.\nGroup Two: One (1) volunteer had hyper insulinemia with readings of 400 mg/dl of glucose\nThe study involved over two hundred diabetic volunteers of both sexes, who had the disease from 3 to 25 years. In various lots, the volunteers were on insulin alone, insulin and hypoglycemic drugs, or hypoglycemic drugs alone. The patients took the product in the form of softgel enteric coated capsules (0.5 ml Linalool and 100 mg vitamin E) one capsule with meals three times a day. The duration of treatment was minimum three months. The product was given along with the classical hypoglycemic treatment (insulin and others). These classical hypoglycemic medications, Insulin—morning and evening, and Daonil (Glibenclamide 5 mg), Glucaphage (metformin 850 mg and other medications, were decreased gradually depending on the monitored improvements of the patient condition."}, "[4]": {"tested_on": "rats (Rattus rattus)", "assay": "LD 50 determination in rats, single subcutaneous dose", "type": "in vivo", "conditions": "one single dose subcutaneously", "protocol": "1. LD 50: For this determination, 59 rats (Rattus rattus) of both sexes were used with body weights of 200-240 grams to determine the LD50. The rats were divided into groups consisting of 5-6 rats each.\nThe rats were fed standard laboratory pellet diet and water ad libitum. Linalool was given as one single dose subcutaneously to rats in gradually increasing doses of 0.2 ml/kg body weight, […], 0.3 ml/kg, 0.35 ml/kg, 0.40 ml/kg, 0.45 ml/kg, 0.50 ml/kg, 0.55 ml/kg, 0.60 ml/kg, 0.65 ml/kg.\nLD 50 was determined to be 0.63 ml/kg body weight."}, "[5]": {"conditions": "Group Two volunteer, hyper insulinemia, June 24, 1999"}}}
{"molecule": "C=CC(C)(O)CCC=C(C)C", "note": "(stereo not drawn) [Linalool, 3,7 dimethyl-1,6-octadien-3-ol]", "values": [{"measurement": "Change in blood glucose % at 15 min.", "setting": "[1]; Table 1, normoglycemic rats, 0.2 ml/kg single i.p. injection, 15 min", "value": "−36.1", "unit": "%"}, {"measurement": "Change in blood glucose % at 1 h.", "setting": "[1]; Table 1, normoglycemic rats, 0.2 ml/kg single i.p. injection", "value": "−35.2", "unit": "%"}, {"measurement": "Change in blood glucose % at 1 h.", "setting": "[1]; Table 2, normoglycemic rats, 0.2 ml/kg single i.p. injection, mean ± S.E.M.", "value": "−35.2 ± 6.2", "unit": "%"}, {"measurement": "Change in blood glucose % at 4 h.", "setting": "[1]; Table 2, normoglycemic rats, 0.2 ml/kg single i.p. injection, 4 h, mean ± S.E.M.", "value": "−40.9 ± 8.2", "unit": "%"}, {"measurement": "Change in blood glucose % at 24 h.", "setting": "[1]; Table 2, normoglycemic rats, 0.2 ml/kg single i.p. injection, 24 h, mean ± S.E.M.", "value": "−18.9 ± 4.4", "unit": "%"}, {"measurement": "hypoglycemic activity within the first four hours after the administration", "setting": "[1]; first of two values, normoglycemic rats (first hour)", "value": 33.2, "unit": "%"}, {"measurement": "time of highest hypoglycemic activity after the intraperitoneal injection", "setting": "[1]; normoglycemic rats", "value": "four"}, {"measurement": "decrease in blood glucose concentration within the first 15 min", "setting": "[1]; normoglycemic rats treated by Linalool", "value": 36.1, "unit": "%"}, {"measurement": "hypoglycemic activity (in words)", "setting": "[1]; normoglycemic rats, i.p. injection", "value": "significant hypoglycemic activity"}, {"measurement": "Change in blood glucose % at 15 min.", "setting": "[2]; Table 1, hyperglycemic rats, 0.2 ml/kg single i.p. injection, 15 min", "value": "−32.1", "unit": "%"}, {"measurement": "Change in blood glucose % at 1 h.", "setting": "[2]; Table 1, hyperglycemic rats, 0.2 ml/kg single i.p. injection", "value": "−35", "unit": "%"}, {"measurement": "Change in blood glucose % at 1 h.", "setting": "[2]; Table 2, hyperglycemic rats, 0.2 ml/kg single i.p. injection, mean ± S.E.M.", "value": "−36.4 ± 8.6", "unit": "%"}, {"measurement": "Change in blood glucose % at 4 h.", "setting": "[2]; Table 2, hyperglycemic rats, 0.2 ml/kg single i.p. injection, 4 h, mean ± S.E.M.", "value": "−43.7 ± 6.6", "unit": "%"}, {"measurement": "Change in blood glucose % at 24 h.", "setting": "[2]; Table 2, hyperglycemic rats, 0.2 ml/kg single i.p. injection, 24 h, mean ± S.E.M.", "value": "−55.8 ± 6.2", "unit": "%"}, {"measurement": "time of highest hypoglycemic activity after the injection", "setting": "[2]; hyperglycemic rats", "value": 24, "unit": "h"}, {"measurement": "decrease in blood glucose concentration within the first 15 min", "setting": "[2]; hyperglycemic rats treated by Linalool", "value": 32.1, "unit": "%"}, {"measurement": "hypoglycemic activity (in words)", "setting": "[2]; hyperglycemic rats, i.p. injection", "value": "significant hypoglycemic activity"}, {"measurement": "hypoglycemic activity within the first four hours after the administration", "setting": "[2]; second of two values, hyperglycemic rats (first hour)", "value": 36.4, "unit": "%"}, {"measurement": "readings (blood glucose)", "setting": "[3]; Group Three volunteer 4, Dec. 17", "value": 175, "unit": "mg/dL"}, {"measurement": "readings (blood glucose)", "setting": "[3]; Group Three volunteer 4, Dec. 24", "value": 163}, {"measurement": "readings (blood glucose)", "setting": "[3]; Group Three volunteer 4, Jul. 26, 1999", "value": 105, "unit": "mg/dL"}, {"measurement": "clinical outcome (physician's judgement)", "setting": "[3]; Group Three volunteer 4, July 14th, taken off all medication", "value": "CURED"}, {"measurement": "HbAlc Readings (lowered to)", "setting": "[3]; Group Three volunteer 4, Jun. 4, 1999", "value": 6.18, "unit": "%"}, {"measurement": "readings (blood glucose)", "setting": "[3]; Group Three volunteer 4, Jun. 18", "value": 109}, {"measurement": "readings (blood glucose)", "setting": "[3]; Group Three volunteer 4, Jun. 26", "value": 105}, {"measurement": "HbAlc Readings, starting value (lowered from)", "setting": "[3]; Group Three volunteer 4, date not stated", "value": 9.3, "unit": "%"}, {"measurement": "Fasting Blood Sugar", "setting": "[3]; Group Three volunteer 5, diabetic over 20 years, Jul. 27, 1998", "value": 233, "unit": "mg/dL"}, {"measurement": "HbAlc", "setting": "[3]; [5]", "value": 7.5, "unit": "%"}, {"measurement": "Insulin, Fasting", "setting": "[3]; [5]", "value": 25.6, "unit": "uU/mL"}, {"measurement": "Serum Glucose, Fasting", "setting": "[3]; [5]", "value": 222, "unit": "mg/dL"}, {"measurement": "Serum Glucose, Fasting", "setting": "[3]; Group Two volunteer, hyper insulinemia, May 17, 1999, untreated reading 197 mg/dl", "value": 200, "unit": "mg/dL"}, {"measurement": "HbAlc", "setting": "[3]; Group Two volunteer, hyper insulinemia, May 17, 1999, untreated reading 8.2%", "value": 8.1, "unit": "%"}, {"measurement": "Insulin, Fasting", "setting": "[3]; Group Two volunteer, hyper insulinemia, May 17, 1999, untreated reading 42 uU/mL", "value": 18.40, "unit": "uU/mL"}, {"measurement": "reduction of fasting insulin level", "setting": "[3]; Group Two volunteer, from 42 uU/mL to 25.6", "value": "~50", "unit": "%"}, {"measurement": "Fasting Blood Sugar", "setting": "[3]; volunteer 5, Aug. 17, 1998", "value": 190}, {"measurement": "HbAlc", "setting": "[3]; volunteer 5, Aug. 17, 1998", "value": 10.1, "unit": "%"}, {"measurement": "Fasting Blood Sugar", "setting": "[3]; volunteer 5, Jan. 27, 1999", "value": 167}, {"measurement": "HbAlc", "setting": "[3]; volunteer 5, Jan. 27, 1999", "value": 7.0, "unit": "%"}, {"measurement": "HbAlc", "setting": "[3]; volunteer 5, Jul. 27, 1998", "value": 11.2, "unit": "%"}, {"measurement": "Fasting Blood Sugar", "setting": "[3]; volunteer 5, Nov. 1, 1998", "value": 114}, {"measurement": "Fasting Blood Sugar", "setting": "[3]; volunteer 5, Nov. 12, 1998", "value": 135}, {"measurement": "HbAlc", "setting": "[3]; volunteer 5, Nov. 12, 1998", "value": 7.5, "unit": "%"}, {"measurement": "Fasting Blood Sugar", "setting": "[3]; volunteer 5, Sep. 17, 1998", "value": 166}, {"measurement": "HbAlc", "setting": "[3]; volunteer 5, Sep. 17, 1998", "value": 9.7, "unit": "%"}, {"measurement": "LD 50", "setting": "[4]", "value": 0.63, "unit": "ml/kg body weight"}]}
{"molecule": "insulin: short acting soluble insulin preparation, 5 units injected IP as comparator [reference compound]", "values": [{"measurement": "decrease in blood glucose concentration within the first 15 min", "setting": "[1]; insulin injection, called insignificant, rat group not stated", "value": 17.1, "unit": "%"}, {"measurement": "decrease in blood glucose concentration after one hour", "setting": "[1]; normoglycemic rats, 5 units of insulin injected IP", "value": 49, "unit": "%"}, {"measurement": "decrease in blood glucose concentration after one hour", "setting": "[2]; hyperglycemic rats, 5 units of insulin injected IP", "value": 47.1, "unit": "%"}]}
